The nature of data set [1]: water solubility. It counts as physicochemical. The note with it: particularly at physiologic pH.
Description: For comparison purposes those same test cells also are exposed to sphingosine and N,N-dimethylsphingosine.
Data set [2] has as its system HUVEC's. Kind of data set: morphologic damage to endothelial cells (HUVEC's). The note with it: staurosporine 2 μM, calphostin C 5 μM. The class given is cell-based, human. As to the method: (§1) A characteristic of neutrophils is the ability to adhere to activiated EC's and to migrate through the EC monolayer into the vascular or extravascular matrix. The effect of TMS on neutrophil interactions with EC's and their subsequent trans-endothelial migration thereof can be monitored in vitro using human umbilical endothelial cells (HUVEC's) (Luscinskas et al., J. Imm., 146, 1617, 1991). Neutrophils are added to a HUVEC monolayer and neutrophil-HUVEC interactions are assessed microscopically following fixation, embedding and staining of monolayer sections.
(§2) HUVEC's and culture media were purchased from Cell Systems (Kirkland, Wash.). The cells were maintained and cultured as described in Luscinskas et al., supra, with some modifications. Briefly, HUVEC's were maintained in 10 ml tissue culture flasks on a collagen type I bed obtained from rat tail (Upstate Biotechnology Inc, Lake Placid, N.Y.) with CS-complete medium, CS-growth factor and CS-AF-1 (Cell Systems). Cells became confluent within 2 to 4 days when incubated in 5% CO2 at 37° C.
The HUVEC monolayer in 24-well tissue culture plates were washed with M199 without FCS, then incubated with 1 ml/well of IL-1β (Boehringer Mannheim Biochemical Products, Indianapolis, Ind.) dissolved in M199 with 1% heat-inactivated FCS (HIFCS) at 10 U/ml. The plates were incubated at 37° C., 5% CO2 for 4 hr then washed gently with 1 ml of M199. […]

In data set [3] the test system is neutrophils. Kind of data set: phagokinetic activity of neutrophils on gold sol-coated plates. It counts as cell-based, human. How it is done:
The phagokinetic activity of neutrophils on gold sol-coated plates can be determined by a technique essentially as taught in Albrecht-Buehler (Cell, 11, 395, 1977). […] Thus, the inhibitory effect of TMS on phagokinetic activity is not dependent on cytotoxicity.
.sctn. The area swept by neutrophils was determined in photographs of the
monolayers. The regions cleared by neutrophil movement were then cut out
Phagokinetic activity was observed by tracing tracks of neutrophils moving on a glass substrate covered with gold colloid particles. The technique was described originally by Albrecht-Buehler, supra, using 3T3 and other cell lines. Briefly, 22×22 mm square glass coverslips (Corning Glass Works, Corning, N.Y.) were dipped for 1 min into 1% BSA prepared in Milli Q water. The BSA solution was prepared fresh each day and passed through 0.20 μm Nalgene filters (Nalgene Labware Division, Rochester, N.Y.).
The coverslip then was drained by touching a Kim-wipe paper towel to its edge, dipped into 100% ethanol and rapidly and completely dried in a 85° C. hot airstream. The coverslip was placed in a 3.5 cm Falcon plastic dish. Then 5.4 ml of AuCl4 H and 18 ml of 36.5 mM Na2 CO3 were added to 33 ml of distilled water and heated. Immediately after reaching the boiling point, 5.4 ml of 0.1% formaldehyde in water were added quickly and mixed. The suspension of gold particles forming a brownish color was distributed immediately onto the dish (2 ml each) and the coverslip was incubated for 2 hr at 37° C.
Particle-coated coverslips were washed in PBS, then twice in RPMI 1640 and finally put in another 3.5 cm Falcon plastic dish containing 2 ml of RPMI 1640 with glutamate and pyruvate. The coverslips were stored at 4° C. and used within 24 hr after preparation.
The freshly-purified neutrophils (1×10^4 cells/plate) were added onto the colloid-coated coverslip. TMS and other effectors were added into the medium on the plate. As a control, the solvent of the effectors (50% ethanol) was added at an equal amount. At that concentration (0.1%), ethanol brought no significant effect on neutrophil activities. To observe cell recovery from exposure to the effectors, neutrophils (2×10^5 cells/ml) were pre-incubated at 37° C. with 12 μM of TMS, SPN and DMS, then distributed to the dish dropwise, diluting the effectors 200-fold. Incubation was conducted under 5% CO2 at 37° C. for 2 hr and terminated by adding 200 μl of 10% formaldehyde. Microscopic examination of each plate was performed with a Nikon microscope, connected to a Polaroid camera for recordings. Phagokinetic activity was measured by tracing the track of a neutrophil. The track was recorded with photographs, then the area was measured by cutting and weighing there swept area.

Data set [4] has as its system neutrophils. Description: neutrophil transmigration through HUVEC monolayer. The class given is cell-based, human. The note with it: for neutrophil transmigration (number of cells transmigrated): Table II, control 100, 90 min. How it is done:
as §1
Cross-sections (2 μm) of the collagen bed with HUVEC's and neutrophils
were observed using a Zeiss light microscope with KPL W10 ahd Ph2 Neoflua
16 lenses. The number of cells transmigrated were counted for each view.
as §2
For the transmigration assay, thick gels were formed in 24-well tissue culture plates. Preparation of the gel solution was carried out at 4° C. Eight parts of collagen solution (Vitrogen 100, from bovine tendon which contained less than 5 ng/ml endotoxin; Celtrix Labs, Palo Alto, Calif.), one part of 10×RPMI and one part of alkaline solution (2.2 g NaHCO3 in 100 ml of 0.05N NaOH and 200 mM HEPES) were mixed gently and distributed at 0.7 ml/well. The solution was left for 4 hr at 37° C. to eliminate air bubbles, then allowed to gel in a 37° C. oven for 3 hr. The wells were washed with 1.0 ml of CS-complete medium with attachment factors at least 4 times and every 3 to 6 hr during further incubation at 37° C. in 5% CO2.
HUVEC's at a passage level of less than 3 were detached from 10 ml tissue culture flasks with 3 ml of Trypsin-EDTA at 37° C. for 30 to 60 sec. Immediately, 3 ml of M199 with 20% heat-inactivated FCS was added. Cells were collected by centrifugation. The pellet was resuspended in 10 ml of CS-complete medium with attachment factors. Homogeneous cell suspensions were plated at 0.7 ml to each well and the plates were incubated for 3 hr at 37° C. The supernatant, which contains dead cells, was aspirated carefully and fresh complete medium with attachment factors was added.
The HUVEC monolayer in 24-well tissue culture plates were washed with M199 without FCS, then incubated with 1 ml/well of IL-1β (Boehringer Mannheim Biochemical Products, Indianapolis, Ind.) dissolved in M199 with 1% heat-inactivated FCS (HIFCS) at 10 U/ml. The plates were incubated at 37° C., 5% CO2 for 4 hr then washed gently with 1 ml of M199. The purified neutrophil suspension (1.5×10^6 cells/ml) in M199 containing 1% HIFCS was pre-incubated with TMS, or other effectors, for 10 min at 37° C. After aspirating the media in the well, 0.5 ml of the neutrophil suspension were added onto the HUVEC monolayer. The tissue culture plate was incubated for 90 min at 37° C.
The culture was terminated by gently aspirating the cell suspension, adding 1 ml of 10% formaldehyde in PBS and stored at 4° C. overnight for fixation. The edge of the collagen bed was cut with a small spatula along the wall 2 hr before removal from the well. The collagen bed, which has HUVEC's on the surface and transmigrated neutrophils within was embedded in paraffin, sectioned and followed by staining with hematoxylin-eosin for microscopic examination.

Data set [5] is described as follows: neutrophil viability (trypan blue exclusion). The class given is cell-based, human. The note with it: neutrophils, Table III, control 94. As to the method:
(§3) The viability was evaluated by trypan blue exclusion assay. The cell
(§4) incubated at 37° C. for 10 min with effectors. The aliquot was
(§5) mixed with an equal amount of trypan blue solution and immediately counte
(§6) under a Nikon light microscope.

The subject of data set [6] is neutrophils. Description: neutrophil viability (trypan blue exclusion). The conditions noted are these: Table V, 37° C., 10 min, in % (unit assumed). The class given is cell-based, human. How it is done: as §3, §4, §5, §6
The test system of data set [7] is phosphoinositide turnover. Kind of data set: fMLP-induced phosphoinositide turnover in neutrophils (32P incorporation). The class given is cell-based, human. The note with it: Table VI, 1 μM fMLP alone, control 100. As to the method:
Amount of ^32 P in PIP and PIP2 was measured using TLC separation. The spots on TLC plates were scraped off and the radioactivity therein was measured with a Beckman scintillation counter. Each spot was compared as to intensity with the identical spot of the control sample.
After incubation, the cells were washed and resuspended in the same buffer at a concentration of 1×10^7 cells/ml. Each suspension (1 ml) then was pretreated with TMS, SPN or DMS, or equal volume of 50% ethanol, for 10 min at 37° C. Then keeping the same temperature, fMLP was added to a final concentration of 1.0 μM. Two minutes later, the reaction was terminated by adding 3.75 ml of chloroform/methanol (1:2) to each cell suspension, followed by sonication for 15 min. An additional 1.25 ml of chloroform, 1.25 ml of water and 50 μl of acetone were added and the total mixture was mixed and left overnight.
Following centrifugation of the mixture, the phospholipids were extracted by Folch's partition method, taking the lower phase from the cell lysate. […] The TLC plate was developed with control phospholipids, in a solvent comprising chloroform/methanol/4M NaOH at a ratio of 45:35:10 and containing 0.1% CDTA (trans-1,2-diaminocyclohexane-N,N,N',N'-tetraacetic acid) for 65 min at 37° C. The bands were identified by staining the control phospholipids with primuline and visualization under ultraviolet light. Autoradiography was performed with Kodak diagnostic film GBX-2 (Rochester N.Y.) by exposing overnight at 37° C.

For data set [8], the system named is GMP-140. Description: GMP-140 expression on platelets (flow cytometry, mAb AC1.2). It counts as cell-based, human. As to the method: FIGS. 11A and 11B depict results of representative experiments assessing the percentage of platelets capable of binding an anti-GMP-140 antibody following exposure to various agents. The percentage binding activity was determined in a flow cytometer. SPN is sphingosine; H-7 is 1-(5-isoquinolinylsulfonyl)-2-methylpiperazine; Cal is calphostin-C; TMS is trimethylsphingosine; and DMS is dimethylsphingosine.
GMP-140 expression was determined by (i) flow cytometry with mAb AC1.2, which is directed to GMP-140 and obtained from Dr. Furie (Tufts Univ. Sch. Med., Boston, Mass.) and (ii) adhesion of HL60 cells on platelet-coated solid phase.
A suspension of platelets (1×10^8 /ml) in Tyrode's buffer was preincubated with inhibitor at pH 7.2, 37° C., for 5 minutes, then supplemented with activator, either thrombin (final concentration 1 U/ml) or phorbol 12-myristate 13-acetate (PMA (final concentration 10^-7 M), and the mixture was incubated at 37° C. for 10 minutes. Platelets were fixed with an equal volume of 2% (w/v) paraformaldehyde in PBS and washed 2 times with PBS containing 1% (w/v) BSA.
The paraformaldehyde-fixed platelets were incubated with 50 μl of mAb AC1.2 (2.5 μg/ml) at room temperature for 30 minutes. Platelets were washed 2 times with PBS containing 1% (w/v) BSA, supplemented with 50 μl of fluorescein isothiocyanate-labeled goat anti-mouse Ig (purchased from Tago Co., Burlingame, Calif.), incubated at room temperature for 30 minutes and again washed 2 times with PBS containing 1% (w/v) BSA. As a negative control, paraformaldehyde-fixed platelets were incubated with mouse IgG instead of mAb AC1.2 and treated as described above.
The platelets were analyzed in an Epics flow cytometer (Coulter Corp.) with suitable gating. To calculate the inhibitory effect of various reagents, the mean fluorescence intensity of resting platelets (obtained on incubation of platelets without activator) was subtracted from the value for the activated platelet sample.
(In general: A flow cytometer gives signals particle by particle.)

For data set [9], the system named is protein kinase-C. The conditions noted are these: in vitro, Tamaoki & Nakano; cited from earlier work.
The mark [10] stands for this setting: Homo sapiens, Neutrophil, 2 h, read-out: Area Swept.
Setting [11] is: Homo sapiens, Neutrophil, 1.5 h, read-out: Number of Cells/View.

For the molecule `CCCCCCCCCCCCC/C=C/[C@@H](O)[C@H](CO)NC` [N-monomethylsphingosine], in data set [1], the water solubility entry is “less water soluble”.

For orientation: viability means a per cent measure of how many cells are alive, often set against a control. Regarding `CN[C@@H]1C[C@H]2O[C@@](C)([C@@H]1OC)n1c3ccccc3c3c4c(c5c6ccccc6n2c5c31)C(=O)NC4` [Staurosporine], the “morphologic damage to EC's” value in data set [2] is reported as “striking morphologic damage to EC's”. Further, in data set [3] (setting [10]), the activity at 0.2 µM was 13 ± 12%. In addition, the activity at 2 µM in [4] (setting [11]) turned out to be 52 ± 25%. Further, the viability at 10 min, 2 µM in [5] (2 μM) came out at 83 ± 3.6%.

Turning to Ceramide, the “Area Swept” value in data set [3] (Table I, 4.5 μM, control 100, 120 min) is recorded as 109 ± 25%. For the same molecule, the entries for the “neutrophil transmigration (number of cells transmigrated)” value in data set [4] (4 μM), in data set [4] (15 μM) and in data set [4] (45 μM) were 92 ± 24, 87 ± 27 and 83 ± 16, respectively. The Viability of neutrophils in data set [6] (5 μM) amounted to 98 ± 2; in data set [6] (15 μM), 96 ± 1; in data set [6] (45 μM) it was 91 ± 3.

`CSCC[C@H](NC=O)C(=O)N[C@@H](CC(C)C)C(=O)N[C@@H](Cc1ccccc1)C(=O)O` [fMLP, formyl-methionyl-leucyl-phenylalanine, reference compound] yielded a PIP labeling in [7] of 182 ± 39.

Turning to `CC1CNCCN1S(=O)(=O)c1cccc2cnccc12` (stereo not shown) [H-7, 1-(5-isoquinolinylsulfonyl)-2-methylpiperazine], the “inhibition of GMP-140 expression” value is on record as “Neither SPN nor H-7 showed inhibition” in [8] (PMA-induced, FIG. 11B) and “no inhibition” in data set [8] (thrombin-induced, FIG. 11A). Moreover, the activity at 200 µM in [3] (setting [10]) stood at 27 ± 6%; in [4] (setting [11]), 38 ± 12%. The molecule also displayed a viability at 10 min, 200 µM in data set [5] (200 μM) of 79 ± 7.1%. For the same molecule, in [9], the “concentration reported to inhibit protein kinase-C” value was 15 µM.

Source of the values: patent US5466716A, “Liposomal trimethylsphingosine” (The Biomembrane Institute, priority 1994, dated 1995).
